According to patent publication US10870625B2, “Zwitterionic propargyl-linked antifolates useful for treating bacterial infections” (THE UNIVERSITY OF CONNECTICUT, priority 2016, dated 2020):
≈ marks a conversion by molar mass, not a printed value. Read-outs that look alike come from different tables or passages of the source. Marks after values point to notes of the source that are not given here.

What was measured:
S. aureus (Sa) DHFR = S. aureus (Sa) DHFR (Staphylococcus aureus, UniProt P0A017); format: biochemical; conditions: Table 2
E. coli (Ec) DHFR = E. coli (Ec) DHFR (Escherichia coli (strain K12), UniProt P0ABQ4); assay: E. coli DHFR enzyme inhibition (NADPH oxidation, 340 nm); format: biochemical
[1] = tested on: S. aureus ATCC strain 43300; assay: microbe, parasite or virus in culture; format: cell-based, Staphylococcus aureus; conditions: for MIC Sa43300: Table 12, wild-type strain
E. coli (ATCC 25922) = assay: E. coli MIC, microdilution broth assay; format: cell-based, Escherichia coli
Protocol: Minimum inhibitory concentrations were determined using E. coli (ATCC 25922) and the microdilution broth assay with an inoculum of […] CFU/mL in Isosensitest Broth (Oxoid).

E. coli NR698 = format: cell-based, Escherichia coli
MtbDHFR = MtbDHFR (Mycobacterium tuberculosis (strain ATCC 25618 / H37Rv), UniProt P9WNX1); assay: M. tuberculosis DHFR enzyme inhibition; format: biochemical
Mtb = assay: M. tuberculosis MIC, microtiter broth dilution (Table 6); format: cell-based, Mycobacterium tuberculosis; conditions: for MIC: Mycobacterium tuberculosis
Protocol: (§1) (provided by Leonid Heifets).
(§2) Each isolate was tested in duplicate.

Mtb Erdman = Mtb Erdman MIC, microtiter broth dilution; format: cell-based, Mycobacterium tuberculosis
Protocol: as §1, §2

Mtb 5 = format: cell-based, Mycobacterium tuberculosis; conditions: XDR strain
Mtb 365 = format: cell-based, Mycobacterium tuberculosis; conditions: MDR strain
Mtb 276 = format: cell-based, Mycobacterium tuberculosis; conditions: MDR strain
Mtb 352 = format: cell-based, Mycobacterium tuberculosis; conditions: MDR strain
Mtb 56 = format: cell-based, Mycobacterium tuberculosis; conditions: MDR strain
Mtb C-31 = format: cell-based, Mycobacterium tuberculosis; conditions: MDR strain
Sa(H30N) strain [2] = tested on: Sa(H30N) strain
[3] = tested on: wild-type Gram-negative E. coli; conditions: background; cited from earlier work
[4] = tested on: methicillin-resistant S. aureus (MRSA); conditions: background; cited from earlier work
Sa(H30N) strain [5] = assay: microbe, parasite or virus in culture; conditions: Staphylococcus aureus, read-out: MIC Sa(H30N)

## CCc1nc(N)nc(N)c1C#CCc1cc(-c2ccccc2C(=O)O)ccc1OC [Compound 14]
S. aureus (Sa) DHFR
  IC50: 157 nM
E. coli (Ec) DHFR; Table 2
  IC50: 526 nM
[1]
  MIC S. aureus 43300: 0.625 µg/mL (≈ 1.55 µM)
E. coli (ATCC 25922); Table 2, wild-type E. coli
  MIC E. coli 25922: >20 µg/mL
E. coli NR698; Table 2
  MIC E. coli NR698: 0.0391 µg/mL (≈ 0.0972 µM)
MtbDHFR
  IC50: 311 nM
Mtb
  MIC Mtb: 1 µg/mL (≈ 2.48 µM)

## CCc1nc(N)nc(N)c1C#CCc1cc(-c2cncn2C)ccc1OC [Compound 56]
MtbDHFR
  IC50: 126 nM
Mtb
  MIC Mtb: 2 µg/mL (≈ 5.52 µM)
Mtb Erdman
  MIC Mtb Erdman: 4 µg/mL (≈ 11 µM)
Mtb 5
  MIC Mtb 5: 4 µg/mL (≈ 11 µM)
Mtb 365
  MIC Mtb 365: 4 µg/mL (≈ 11 µM)
Mtb 276
  MIC Mtb 276: 4 µg/mL (≈ 11 µM)
Mtb 352
  MIC Mtb 352: 4 µg/mL (≈ 11 µM)
Mtb 56
  MIC Mtb56: 4 µg/mL (≈ 11 µM)
Mtb C-31
  MIC Mtb C-31: 8 µg/mL (≈ 22.1 µM)

## CCc1nc(N)nc(N)c1C#CCc1cc2c(c(-c3cc(F)c(OC)c(F)c3)c1)OCO2 [Compound 40]
E. coli (Ec) DHFR; Table 3
  IC50: > 20000 nM
E. coli (ATCC 25922); Table 3
  MIC E. coli 25922: 5 µg/mL (≈ 11.4 µM)
E. coli NR698; Table 3
  MIC E. coli NR698: 0.78 µg/mL (≈ 1.78 µM)

## CCc1nc(N)nc(N)c1C#C[C@@H](C)c1cc(-c2ccncc2)ccc1OC [Compound 57]
MtbDHFR
  IC50: 73 nM
Mtb
  MIC Mtb: 2 µg/mL (≈ 5.36 µM)

## NNC(=O)c1ccncc1 [INH, Isoniazid, reference compound]
Mtb
  MIC: 0.03 µg/mL (≈ 0.219 µM)
Mtb Erdman; Mycobacterium tuberculosis, ERDMAN
  MIC: 0.125 µg/mL (≈ 0.911 µM)

## CCc1nc(N)nc(N)c1C#C[C@H](C)c1cc(-c2ccc(C(=O)OC)cc2)ccc1OC [Compound 33]
S. aureus (Sa) DHFR
  IC50: 22 nM
E. coli (Ec) DHFR; Table 2
  IC50: 34 nM
[1]; Table 2
  MIC S. aureus 43300: 0.625 µg/mL (≈ 1.45 µM)
E. coli (ATCC 25922); Table 2, wild-type E. coli
  MIC E. coli 25922: >20* μg/mL
E. coli NR698; Table 2
  MIC E. coli NR698: 0.156 µg/mL (≈ 0.362 µM)

## CCc1nc(N)nc(N)c1C#C[C@@H](C)c1cc(-c2ccc(C(=O)OC)cc2)ccc1OC [Compound 34]
S. aureus (Sa) DHFR
  IC50: 205 nM
E. coli (Ec) DHFR; Table 2
  IC50: 172 nM
[1]; Table 2
  MIC S. aureus 43300: 10 µg/mL (≈ 23.2 µM)
E. coli (ATCC 25922); Table 2, wild-type E. coli
  MIC E. coli 25922: >20* μg/mL
E. coli NR698; Table 2
  MIC E. coli NR698: 1.875 µg/mL (≈ 4.36 µM)

## CCc1nc(N)nc(N)c1C#CC(C)c1cc(OC)cc(-c2ccc(C(=O)O)cc2)c1 (stereo not drawn) [Compound 58]
Mtb
  MIC Mtb: <0.03 µg/mL
Mtb Erdman
  MIC Mtb Erdman: <0.03 µg/mL
Mtb 5
  MIC Mtb 5: 0.25 µg/mL (≈ 0.6 µM)
Mtb 365
  MIC Mtb 365: <0.03 µg/mL
Mtb 352
  MIC Mtb 352: 0.06 µg/mL (≈ 0.144 µM)
Mtb 56
  MIC Mtb56: 0.06 µg/mL (≈ 0.144 µM)
Mtb C-31
  MIC Mtb C-31: 8 µg/mL (≈ 19.2 µM)

## CCc1nc(N)nc(N)c1C#C[C@@H](C)c1cc(-c2ccc(C(=O)O)cc2)ccc1OC [Compound 30]
[1]
  MIC S. aureus 43300: 0.0195 µg/mL (≈ 0.0468 µM)
E. coli (ATCC 25922); Table 2, wild-type E. coli
  MIC E. coli 25922: 20 µg/mL (≈ 48 µM)
E. coli NR698; Table 2
  MIC E. coli NR698: 0.0012 µg/mL (≈ 0.00288 µM)

## CCc1nc(N)nc(N)c1C#CC(C)c1cc(-c2ccncc2)ccc1OC (racemic) [C, reference compound]
[1]
  MIC Sa43300: 0.625 µg/mL (≈ 1.67 µM)
Sa(H30N) strain [2]
  MIC Sa(H30N): 2.5 µg/mL (≈ 6.69 µM)

## CCc1nc(N)nc(N)c1C#C[C@H](C)c1cc(OC)cc(-c2ccc(C(=O)O)cc2)c1 [Compound 31]
[1]
  MIC S. aureus 43300: 0.0098 µg/mL (≈ 0.0235 µM)
  MIC Sa43300: 0.0098 µg/mL (≈ 0.0235 µM)
E. coli (ATCC 25922); Table 2, wild-type E. coli
  MIC E. coli 25922: 10 µg/mL (≈ 24 µM)
E. coli NR698; Table 2
  MIC E. coli NR698: 0.0024 µg/mL (≈ 0.00576 µM)
Sa(H30N) strain [2]
  MIC Sa(H30N): 0.0781 µg/mL (≈ 0.188 µM)

## CCc1nc(N)nc(N)c1C#C[C@@H](C)c1cc(-c2ccncc2)ccc1OC [E, reference compound]
[1]
  MIC Sa43300: 0.0195 µg/mL (≈ 0.0522 µM)
Sa(H30N) strain [2]
  MIC Sa(H30N): 0.625 µg/mL (≈ 1.67 µM)

## COc1cc(Cc2cnc(N)nc2N)cc(OC)c1OC [TMP, trimethoprim]
[1]; Staphylococcus aureus, ATCC43300, read-out: MIC Sa43300
  MIC: 0.312 µg/mL (≈ 1.08 µM)
Mtb
  MIC: 256 µg/mL (≈ 882 µM)
[3]
  MIC E. coli: 0.3125 µg/mL (≈ 1.08 µM)
[4]
  MIC MRSA: 0.3125 µg/mL (≈ 1.08 µM)
Sa(H30N) strain [5]
  MIC: 2.5 µg/mL (≈ 8.61 µM)
